According to patent publication US8415469B2, “Compounds and methods for kinase modulation, and indications therefor” (Plexxikon Inc., priority 2005, dated 2013):

How the values were obtained:
Type in all cases: biochemical
[1] = biological target: T1, B-Raf V600E (Homo sapiens, UniProt P15056, V600E); assay: AlphaScreen kinase assay, B-Raf V600E; conditions: read-out: IC50, activity toward kinase B-Raf V600E
T1 construct: P4254. pFastBacBD-CDC37 BRAF D437-K722-X, V600E; His6 with pFastBac HT leader (TEV site) (N); made in house; host or cells: Sf9 (baculovirus; chaperone CDC37 co-expressed)
T1 sequence (P15056 with tags, fused parts or gaps V600E): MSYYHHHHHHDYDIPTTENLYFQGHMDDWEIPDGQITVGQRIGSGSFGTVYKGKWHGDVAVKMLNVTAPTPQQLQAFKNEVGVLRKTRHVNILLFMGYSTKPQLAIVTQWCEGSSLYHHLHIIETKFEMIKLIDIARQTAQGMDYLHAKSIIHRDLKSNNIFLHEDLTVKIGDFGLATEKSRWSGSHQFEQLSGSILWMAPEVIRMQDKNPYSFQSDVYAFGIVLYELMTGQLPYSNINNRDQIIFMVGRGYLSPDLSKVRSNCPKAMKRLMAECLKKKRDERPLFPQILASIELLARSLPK

[2] = biological target: T2, Btk (Homo sapiens, UniProt Q06187); assay: Z'-Lyte FRET kinase assay (Invitrogen), Btk; conditions: read-out: IC50, activity toward kinase Btk
T2 construct: purchased Invitrogen (assay run by Invitrogen)
T2 sequence (Q06187 whole entry): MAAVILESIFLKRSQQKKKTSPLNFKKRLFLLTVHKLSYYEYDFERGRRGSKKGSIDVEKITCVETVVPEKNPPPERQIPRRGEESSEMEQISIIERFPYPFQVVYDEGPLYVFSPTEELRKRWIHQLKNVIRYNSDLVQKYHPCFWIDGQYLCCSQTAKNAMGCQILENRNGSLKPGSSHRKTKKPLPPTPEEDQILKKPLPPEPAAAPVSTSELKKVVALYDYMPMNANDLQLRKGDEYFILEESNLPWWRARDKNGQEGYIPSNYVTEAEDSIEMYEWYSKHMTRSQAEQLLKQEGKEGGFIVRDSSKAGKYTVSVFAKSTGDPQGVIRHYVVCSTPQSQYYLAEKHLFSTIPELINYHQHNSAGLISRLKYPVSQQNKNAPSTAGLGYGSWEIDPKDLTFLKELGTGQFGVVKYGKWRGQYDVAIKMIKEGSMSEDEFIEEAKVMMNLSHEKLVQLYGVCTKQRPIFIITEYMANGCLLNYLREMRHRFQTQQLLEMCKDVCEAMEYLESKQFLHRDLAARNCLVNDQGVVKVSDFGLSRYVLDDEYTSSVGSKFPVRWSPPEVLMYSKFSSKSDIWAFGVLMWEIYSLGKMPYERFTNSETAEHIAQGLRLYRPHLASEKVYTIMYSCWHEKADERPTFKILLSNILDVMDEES

[3] = biological target: T3, EphB2 (Homo sapiens, UniProt P29323); assay: Z'-Lyte FRET kinase assay (Invitrogen), EphB2; conditions: read-out: IC50, activity toward kinase EphB2
T3 construct: purchased Invitrogen (assay run by Invitrogen)
T3 sequence (P29323 19-1055): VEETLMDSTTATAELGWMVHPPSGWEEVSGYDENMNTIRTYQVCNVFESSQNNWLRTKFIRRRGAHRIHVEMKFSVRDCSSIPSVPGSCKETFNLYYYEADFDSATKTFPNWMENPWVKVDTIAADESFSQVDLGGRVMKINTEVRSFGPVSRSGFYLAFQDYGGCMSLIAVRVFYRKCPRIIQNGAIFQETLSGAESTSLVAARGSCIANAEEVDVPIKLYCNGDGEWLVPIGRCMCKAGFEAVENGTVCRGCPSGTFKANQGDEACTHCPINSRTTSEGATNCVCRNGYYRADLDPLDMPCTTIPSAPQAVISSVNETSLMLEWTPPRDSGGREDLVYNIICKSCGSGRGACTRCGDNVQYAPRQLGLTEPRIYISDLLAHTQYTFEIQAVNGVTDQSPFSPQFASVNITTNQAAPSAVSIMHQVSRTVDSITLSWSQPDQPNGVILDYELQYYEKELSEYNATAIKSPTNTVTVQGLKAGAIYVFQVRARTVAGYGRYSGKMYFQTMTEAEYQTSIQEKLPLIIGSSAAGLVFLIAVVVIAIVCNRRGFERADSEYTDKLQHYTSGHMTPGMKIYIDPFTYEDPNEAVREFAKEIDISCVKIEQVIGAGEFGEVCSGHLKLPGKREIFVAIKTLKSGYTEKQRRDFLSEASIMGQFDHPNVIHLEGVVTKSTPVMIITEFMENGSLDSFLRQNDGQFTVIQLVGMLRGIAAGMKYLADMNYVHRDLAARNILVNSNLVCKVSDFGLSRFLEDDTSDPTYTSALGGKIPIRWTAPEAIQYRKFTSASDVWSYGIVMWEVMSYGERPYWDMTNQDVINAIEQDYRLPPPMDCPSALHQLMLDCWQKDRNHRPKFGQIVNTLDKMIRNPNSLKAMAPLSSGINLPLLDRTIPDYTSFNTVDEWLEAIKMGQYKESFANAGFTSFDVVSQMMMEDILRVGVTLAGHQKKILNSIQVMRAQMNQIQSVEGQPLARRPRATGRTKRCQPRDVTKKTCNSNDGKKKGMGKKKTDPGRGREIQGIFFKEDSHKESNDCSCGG
Procedure, shortened: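 10 μM ATP, 2 μM peptide, 1% DMSO final; HEPES pH 7.5 buffer with MgCl2/EGTA/BRIJ-35. Kinase rxn 1 h RT, protease development 1 h RT, stop, read donor/acceptor ratio. Compound titrated.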

[4] = biological target: T4, Kdr (Homo sapiens, UniProt P35968); assay: Z'-Lyte FRET kinase assay (Invitrogen), Kdr; conditions: read-out: IC50, activity toward kinase Kdr
T4 construct: purchased Invitrogen (assay run by Invitrogen)
T4 sequence (P35968 20-1356): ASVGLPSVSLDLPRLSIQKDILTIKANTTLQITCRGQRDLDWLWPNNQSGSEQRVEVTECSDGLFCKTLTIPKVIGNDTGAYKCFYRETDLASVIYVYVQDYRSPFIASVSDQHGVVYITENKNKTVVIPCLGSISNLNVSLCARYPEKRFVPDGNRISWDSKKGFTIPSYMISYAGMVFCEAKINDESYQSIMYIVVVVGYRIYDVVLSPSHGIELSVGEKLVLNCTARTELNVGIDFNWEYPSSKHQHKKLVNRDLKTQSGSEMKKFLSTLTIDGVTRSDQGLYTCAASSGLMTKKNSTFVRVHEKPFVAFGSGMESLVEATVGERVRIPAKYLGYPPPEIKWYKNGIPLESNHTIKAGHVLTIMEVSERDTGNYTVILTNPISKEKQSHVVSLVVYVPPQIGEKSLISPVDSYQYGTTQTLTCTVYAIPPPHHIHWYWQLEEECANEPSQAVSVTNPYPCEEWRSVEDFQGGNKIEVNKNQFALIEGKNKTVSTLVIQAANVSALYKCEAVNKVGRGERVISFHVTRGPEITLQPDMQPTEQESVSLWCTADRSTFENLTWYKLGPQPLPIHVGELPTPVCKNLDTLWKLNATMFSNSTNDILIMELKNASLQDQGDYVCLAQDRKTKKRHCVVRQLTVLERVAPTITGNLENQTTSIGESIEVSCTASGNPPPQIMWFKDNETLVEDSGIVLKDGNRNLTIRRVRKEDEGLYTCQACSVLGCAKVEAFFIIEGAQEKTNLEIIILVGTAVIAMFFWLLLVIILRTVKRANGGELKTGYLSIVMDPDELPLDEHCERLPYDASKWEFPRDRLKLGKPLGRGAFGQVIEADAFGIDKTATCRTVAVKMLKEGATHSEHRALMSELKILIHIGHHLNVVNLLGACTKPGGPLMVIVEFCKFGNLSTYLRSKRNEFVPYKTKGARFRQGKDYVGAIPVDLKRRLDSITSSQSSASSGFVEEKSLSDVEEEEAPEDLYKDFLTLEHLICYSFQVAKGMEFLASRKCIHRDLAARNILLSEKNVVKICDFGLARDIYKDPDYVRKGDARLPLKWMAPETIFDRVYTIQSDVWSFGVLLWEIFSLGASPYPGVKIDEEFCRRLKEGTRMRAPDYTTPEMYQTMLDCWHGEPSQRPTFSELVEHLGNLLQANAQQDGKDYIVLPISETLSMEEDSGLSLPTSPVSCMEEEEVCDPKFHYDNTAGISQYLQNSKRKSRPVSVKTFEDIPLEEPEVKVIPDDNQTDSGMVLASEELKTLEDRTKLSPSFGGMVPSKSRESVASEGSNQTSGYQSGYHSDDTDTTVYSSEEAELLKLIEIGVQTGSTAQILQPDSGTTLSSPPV

[5] = biological target: T5, B-Raf (Homo sapiens, UniProt P15056); assay: AlphaScreen kinase assay, B-Raf; conditions: read-out: IC50, activity toward kinase B-Raf
T5 construct: purchased Upstate Biotechnology
T5 sequence (P15056 whole entry): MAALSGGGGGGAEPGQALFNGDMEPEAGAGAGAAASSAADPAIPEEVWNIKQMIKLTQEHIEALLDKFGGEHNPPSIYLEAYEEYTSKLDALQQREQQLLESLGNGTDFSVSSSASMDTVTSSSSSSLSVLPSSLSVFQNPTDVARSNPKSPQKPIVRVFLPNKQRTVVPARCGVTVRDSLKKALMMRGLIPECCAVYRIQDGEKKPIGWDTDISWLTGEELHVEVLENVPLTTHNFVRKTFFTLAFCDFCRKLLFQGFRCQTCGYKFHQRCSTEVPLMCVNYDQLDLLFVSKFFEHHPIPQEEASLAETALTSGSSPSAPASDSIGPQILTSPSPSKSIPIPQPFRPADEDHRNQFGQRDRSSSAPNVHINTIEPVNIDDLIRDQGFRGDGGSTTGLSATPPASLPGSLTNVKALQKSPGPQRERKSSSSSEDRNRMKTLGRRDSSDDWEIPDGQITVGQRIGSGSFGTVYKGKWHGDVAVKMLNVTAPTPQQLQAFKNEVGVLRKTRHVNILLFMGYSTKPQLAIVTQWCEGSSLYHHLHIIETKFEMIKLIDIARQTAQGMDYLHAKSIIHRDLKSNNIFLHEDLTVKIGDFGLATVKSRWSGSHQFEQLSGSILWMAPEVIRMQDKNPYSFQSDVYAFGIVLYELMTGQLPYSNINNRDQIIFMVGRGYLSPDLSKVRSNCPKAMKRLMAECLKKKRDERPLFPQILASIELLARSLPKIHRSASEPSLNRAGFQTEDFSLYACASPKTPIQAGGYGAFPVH

[6] = biological target: T6, Kit (Homo sapiens, UniProt P10721); assay: AlphaScreen kinase assay, Kit; conditions: read-out: IC50, activity toward kinase Kit
T6 construct: P1332.N6 BI PTP KIT M552-K948-X COD; His6 (N); made in house; host or cells: E. coli (PTP1B co-expressed)
T6 sequence (P10721 with tags, fused parts or gaps): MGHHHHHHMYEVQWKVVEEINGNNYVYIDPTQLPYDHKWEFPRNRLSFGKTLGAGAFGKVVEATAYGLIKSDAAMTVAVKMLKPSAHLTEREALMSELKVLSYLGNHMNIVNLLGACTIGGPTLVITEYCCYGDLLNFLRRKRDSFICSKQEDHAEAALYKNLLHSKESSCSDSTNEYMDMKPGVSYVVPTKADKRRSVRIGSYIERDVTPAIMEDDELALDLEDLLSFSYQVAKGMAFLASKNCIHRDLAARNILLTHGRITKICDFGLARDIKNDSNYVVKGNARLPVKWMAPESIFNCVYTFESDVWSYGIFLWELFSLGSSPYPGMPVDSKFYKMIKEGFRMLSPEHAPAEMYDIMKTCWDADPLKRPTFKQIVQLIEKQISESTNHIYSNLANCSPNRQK

IC50 [1] [µM] | IC50 [2] [µM] | IC50 [3] [µM] | IC50 [4] [µM] | IC50 [5] [µM] | IC50 [6] [µM] | Compound
≤ 10 | ≤ 10 | ≤ 10 | ≤ 10 |  |  | CC(=O)Nc1cccc(-c2ccnc3[nH]cc(C(=O)c4ccccc4F)c23)c1 [Compound P-0070]
≤ 10 |  | ≤ 10 | ≤ 10 | ≤ 10 | ≤ 10 | Oc1cccc(Cc2c[nH]c3ncc(-c4ccsc4)cc23)c1 [Compound P-0056]
≤ 10 | ≤ 10 | ≤ 10 |  |  | ≤ 10 | Cc1ccc(S(=O)(=O)NCc2c[nH]c3nccc(-c4cccc(C#N)c4)c23)cc1 [Compound P-0072]
≤ 10 | ≤ 10 | ≤ 10 | ≤ 10 | ≤ 10 |  | O=C(c1cccc(O)c1)c1c[nH]c2ncc(Nc3ccccc3)cc12 [Compound P-0025]
≤ 10 |  | ≤ 10 | ≤ 10 | ≤ 10 | ≤ 10 | CC(=O)Nc1cccc(-c2cnc3[nH]cc(C(=O)c4cc(O)ccc4F)c3c2)c1 [Compound P-0001]
≤ 10 |  | ≤ 10 |  |  |  | Cc1ccc(F)cc1C(=O)c1c[nH]c2nccc(-c3cccc(NS(C)(=O)=O)c3)c12 [Compound P-0124]
≤ 10 | ≤ 10 | ≤ 10 | ≤ 10 |  | ≤ 10 | Cc1ccc(F)cc1C(=O)c1c[nH]c2ncc(-c3cccc(N)c3)cc12 [Compound P-0040]
≤ 10 | ≤ 10 | ≤ 10 | ≤ 10 |  | ≤ 10 | O=C(c1cccc(O)c1)c1c[nH]c2ncccc12 [Compound P-0011]
≤ 10 |  | ≤ 10 |  | ≤ 10 | ≤ 10 | CS(=O)(=O)Nc1cccc(-c2cnc3[nH]cc(C(=O)c4cccc(O)c4F)c3c2)c1 [Compound P-0038, N-{3-[3-(2-Fluoro-3-hydroxy-benzoyl)-1H-pyrrolo[2,3-b]pyridin-5-yl]-phenyl}-methanesulfonamide]
≤ 10 | ≤ 10 | ≤ 10 | ≤ 10 |  | ≤ 10 | Cc1ccccc1C(=O)c1c[nH]c2nccc(-c3ccc(C(N)=O)cc3)c12 [Compound P-0017]
≤ 10 | ≤ 10 | ≤ 10 | ≤ 10 | ≤ 10 |  | O=C(c1cc(O)ccc1F)c1c[nH]c2ncc(-c3ccccc3)cc12 [Compound P-0045]
 | ≤ 10 | ≤ 10 | ≤ 10 |  | ≤ 10 | CS(=O)(=O)c1cccc(-c2cnc3[nH]cc(C(O)c4c(F)ccc(F)c4F)c3c2)c1 (stereo not shown) [Compound P-0020]
≤ 10 | ≤ 10 | ≤ 10 | ≤ 10 |  | ≤ 10 | Cc1ccc(F)cc1C(=O)c1c[nH]c2ncc(-c3cccc(NS(C)(=O)=O)c3)cc12 [Compound P-0028]
≤ 10 | ≤ 10 | ≤ 10 | ≤ 10 |  |  | COc1ccc(C(=O)c2c[nH]c3ncc(-c4cccc(/C=C/C(=O)O)c4)cc23)c(Cl)c1 [Compound P-0015]
≤ 10 |  | ≤ 10 |  | ≤ 10 | ≤ 10 | NC(=O)c1cccc(-c2cnc3[nH]cc(C(=O)c4cccc(O)c4F)c3c2)c1 [Compound P-0034, 3-[3-(2-Fluoro-3-hydroxy-benzoyl)-1H-pyrrolo[2,3-b]pyridin-5-yl]benzamide]
≤ 10 | ≤ 10 | ≤ 10 | ≤ 10 |  | ≤ 10 | NC(=O)c1ccc(-c2ccnc3[nH]cc(C(=O)c4cc(F)ccc4F)c23)cc1 [Compound P-0013]

IC50 [1] [µM] | IC50 [2] [µM] | IC50 [3] [µM] | IC50 [4] [µM] | IC50 [5] [µM] | IC50 [6] [µM] | Compound
≤ 10 | ≤ 10 | ≤ 10 |  | ≤ 10 |  | O=C(O)/C=C/c1cccc(-c2cnc3[nH]cc(C(=O)c4cc(O)ccc4F)c3c2)c1 [Compound P-0010]
≤ 10 |  | ≤ 10 | ≤ 10 | ≤ 10 | ≤ 10 | Nc1cccc(-c2cnc3[nH]cc(C(=O)c4cccc(O)c4)c3c2)c1 [Compound P-0003]
≤ 10 | ≤ 10 | ≤ 10 | ≤ 10 |  |  | O=C(c1cccc(O)c1)c1c[nH]c2ncc(-c3cccnc3)cc12 [Compound P-0048]
≤ 10 | ≤ 10 | ≤ 10 | ≤ 10 |  |  | Cc1ccccc1C(=O)c1c[nH]c2nccc(-c3cccc(N)c3)c12 [Compound P-0044]
≤ 10 |  | ≤ 10 | ≤ 10 | ≤ 10 | ≤ 10 | O=C(c1cc(O)ccc1F)c1c[nH]c2ncc(-c3cccs3)cc12 [Compound P-0032]
≤ 10 | ≤ 10 | ≤ 10 |  |  |  | Cc1ccccc1C(=O)c1c[nH]c2nccc(-c3cccc(NS(C)(=O)=O)c3)c12 [Compound P-0109]
≤ 10 |  | ≤ 10 | ≤ 10 | ≤ 10 | ≤ 10 | Oc1ccc(F)c(Cc2c[nH]c3ncc(-c4cccnc4)cc23)c1F [Compound P-0078, 2,4-difluoro-3-(5-pyridin-3-yl-1H-pyrrolo[2,3-b]pyridin-3-ylmethyl)-phenol]
≤ 10 |  | ≤ 10 |  | ≤ 10 | ≤ 10 | O=C(c1cccc(O)c1F)c1c[nH]c2ncc(-c3ccccc3)cc12 [Compound P-0036, (2-fluoro-3-hydroxy-phenyl)-(5-phenyl-1H-pyrrolo[2,3-b]pyridin-3-yl)-methanone]
≤ 10 | ≤ 10 | ≤ 10 | ≤ 10 |  | ≤ 10 | O=C(O)/C=C/c1cccc(-c2cnc3[nH]cc(C(=O)c4ccccc4F)c3c2)c1 [Compound P-0033]
≤ 10 | ≤ 10 | ≤ 10 | ≤ 10 |  |  | NC(=O)c1ccc(-c2ccnc3[nH]cc(C(=O)c4ccccc4F)c23)cc1 [Compound P-0014]
≤ 10 | ≤ 10 | ≤ 10 | ≤ 10 |  | ≤ 10 | O=C(c1cccc(O)c1)c1c[nH]c2nccc(Cl)c12 [Compound P-0012]
≤ 10 |  | ≤ 10 | ≤ 10 | ≤ 10 | ≤ 10 | Cc1c(O)cccc1C(=O)c1c[nH]c2ncc(-c3cccs3)cc12 [Compound P-0114, (3-Hydroxy-2-methyl-phenyl)-(5-thiophen-2-yl-1H-pyrrolo[2,3b]pyridin-3-yl)-methanone]
≤ 10 |  | ≤ 10 |  | ≤ 10 | ≤ 10 | CC(=O)Nc1cccc(-c2cnc3[nH]cc(C(=O)c4cccc(O)c4F)c3c2)c1 [Compound P-0035, N-{3-[3-(2-Fluoro-3-hydroxy-benzoyl)-1H-pyrrolo[2,3-b]pyridin-5-yl]-phenyl}-acetamide]
 | ≤ 10 | ≤ 10 | ≤ 10 |  | ≤ 10 | Nc1ccnc2[nH]cc(C(=O)c3ccccc3)c12 [Compound P-0029]
≤ 10 | ≤ 10 | ≤ 10 | ≤ 10 |  |  | Nc1cccc(-c2ccnc3[nH]cc(C(=O)c4ccccc4F)c23)c1 [Compound P-0022]
